The subject of assay [1] is Human umbilical cord endothelial cells (HUVEC). Briefly: VEGF-driven cellular proliferation assay: BrdU incorporation assay (VEGF-C). Format: cell-based. Details: key to VEGF-C: + = pIC50 of 5.0–6.0; ++ = pIC50 of 6.0–7.0; +++ = pIC50 of > 7.0; − = a negative or inconclusive result. The following applies: for IC50: Homo sapiens. As to the method: VFGF-driven Cellular Proliferation Assay: BrdU Incorporation Assay (VEGF-C)
Human umbilical cord endothelial cells (HUVEC, Clonetics, CC2519) were passaged in Type I collagen-coated 100-mm petridishes in EGM-MV medium (Clonetics, CC3125) at 37° C. in a humidified 5% CO2, 95% air incubator. (HUVEC passaged more than 6 times in vitro were discarded and not subjected to assaying.) The cells were harvested using trypsin/EDTA, counted using a haemocytometer and plated at 5000 cells/well in a Type I-collagen coated 96-well plate (Becton Dickinson, 354407) in M199 medium (Gibco BRL, 12340-030) containing 5% FBS (Hyclone, A 1115-L) and gentamicin (at 50 μg/ml, Gibco BRL). After incubation overnight at 37° C., the media were replaced with 100 μl of M199 serum-free medium containing compounds at various concentrations with 0.6% DMSO and gentamicin. The compounds were diluted in serum-free M199 medium from 10 mM stock solutions prepared in 100% DMSO. After a 30 min incubation at 37° C., the cells were fed with 100 μl of serum-free M199 medium containing gentamicin, 0.2% culture-grade bovine serum albumin (BSA, Sigma A1993) and 20 ng/ml of VEGF (R&D systems, 293-VE) or 0.6 ng/ml of basic FGF (R&D systems, 233-FB), and cultured at 37° C. for another 24 h. The cells were pulsed with bromodeoxyuridine (BrdU at 10 μM in serum-free M199) at 37° C. for an additional 24 h. The incorporation of BrdU into the proliferating HUVEC were analyzed using BrdU Cell Proliferation ELISA (Roche Molecular Biochemicals, 1647229) according to the manufacturer's protocols. The optical density at 450 nm was measured with a multilabel counter (ARVO SX, Wallac). The percent inhibition of cell growth was calculated relative to blank control wells. The concentration of test compound that inhibits 50% of cell growth (IC50) was interpolated using nonlinear regression (Levernberg-Marquardt) and the equation, y=Vmax (1−x/(K+x))+Y2, where “K” was equal to the IC50. The IC50, values were converted to pIC50 values, i.e., −log IC50 in Molar concentration.
(Incorporation of labelled thymidine or its analogues reports DNA synthesis.)

In the next assay the target is T1, GST-VEGFR2 (Homo sapiens, UniProt P35968).
T1 construct: GST-VEGFR2, baculovirus expressed recombinant constructs of the intracellular domains of human TIE2 tagged by GST; made in house
Nature of the assay: VEGF-R2 enzyme assay (VEGF-E), LANCE method. Format: biochemical. The following applies: 75 μM ATP. On the procedure:
VEGF-R2 Enzyme Assay (VEGF-E)
The VEGF enzyme assay used the LANCE method (Wallac) and GST-VEGFR2, baculovirus expressed recombinant constructs of the intracellular domains of human […] tagged by GST. […] The reaction was stopped by the addition of EDTA (final concentration 50 mM). Streptavidin linked-APC (allophycocyanin, Molecular Probe) and Europium-labeled anti-phosphorylated tyrosine antibody (Wallac) were then added at the final concentration of 15 nM and 1 nM, respectively. The APC signal was measured using an ARVO multilabel counter (Wallac Berthold, Japan). The percent inhibition of activity was calculated relative to blank control wells. The concentration of test compound that inhibits 50% of activity (IC50) was interpolated using nonlinear regression (Levernberg-Marquardt) and the equation, y=Vmax (1−x/(K+x))+Y2, where “K” was equal to the IC50. The IC50 values were converted to pIC50 values, i.e., −log IC50 in Molar concentration.
(TR-FRET usually uses a lanthanide donor and a delayed reading to cut background.)

Assay [2] addresses T2, GST-TIE2 (intracellular domains of human TIE2) (Homo sapiens, UniProt Q02763).
T2 construct: made in house
Nature of the assay: TIE-2 enzyme assay (TIE2-E), LANCE method. It counts as biochemical. The following applies: 80 uM ATP. As to the method: TIE-2Enzyme Assay (TIE2-E)
The TIE-2 enzyme assay used the LANCE method (Wallac) and GST-TIE2, baculovirus expressed recombinant constructs of the intracellular domains of human TIE2 (amino acids 762–1104, GenBank Accession # L06139) tagged by GST). […] This peptide phosphorylation was detected using the following procedure: for enzyme preactivation, GST-TIE2 was incubated for 30 mins at room temperature with 2 mM ATP, 5 mM MgCl2 and 12.5 mM DTT in 22.5 mM HEPES buffer (pH7.4). Preactivated GST-TIE2 was incubated for 30 mins at room temperature in 96 well plates with 1 μM D1-15 peptide, 80 uM ATP, 10 mM MgCl2, 0.1 mg/ml BSA and the test compound (diluted from a 10 mM stock in DMSO, final DMSO concentration was 2.4%) in 1 mM HEPES (pH7.4). The reaction was stopped by the addition of EDTA (final concentration 45 mM). Streptavidin linked-APC (allophycocyanin, Molecular Probe) and Europium-labeled anti-phosphorylated tyrosine antibody (Wallac) were then added at the final concentration of 17 μg/well and 2.1 μg/well, respectively. The APC signal was measured using an ARVO multilabel counter. (Wallac Berthold Japan). The percent inhibition of activity was calculated relative to blank control wells. The concentration of test compound that inhibits 50% of activity (IC50) was interpolated using nonlinear regression (Levernberg-Marquardt) and the equation, y=Vmax (1−x/(K+x))+Y2, where “K” was equal to the IC50. The IC50 values were converted to pIC50 values, i.e., −log IC50 in Molar concentration.

Assay [3] has as its target T3, TIE2 intracellular domain/c-fms extracellular domain (TIE2/c-fms) chimeric protein expressing mouse 3T3 cells (Homo sapiens, UniProt Q02763).
T3 construct: a TIE2 intracellular domain/c-fms extracellular domain (TIE2/c-fms) chimeric protein; expressed in transfected cells; host or cells: mouse 3T3 cells
Nature of the assay: TIE-2 autophosphorylation assay (TIE2-C), ELISA. Format: cell-based. The conditions noted are these: TIE2/c-fms 3T3 cells, MCSF activation. As to the method: TIE-2 Autophosphorylation Assay (TIE2-C)
The TIE-2 autophosphorylation assay used an ELISA method and a TIE2 intracellular domain/c-fms extracellular domain (TIE2/c-fms) chimeric protein expressing mouse 3T3 cells. This assay measured the autophosphorylation level of TIE2 protein expressed in cells. The cells were cultured in high glucose DMEM (Sigma) containing 10% serum at 37° C. in a humidified 10% CO2, 90% air incubator. The test compound (diluted from a 10 mM stock in DMSO, final DMSO concentration was 0.1%) was incubated with TIE2/c-fms expressing cells for 1 hr in serum free DMEM in 96 well plates followed by the activation of TIE2/c-fms receptor using c-fms ligand, MCSF (macrophage colony stimulating factor). The culture media was removed by aspiration and the cells incubated for at least 30 mins on ice with lysis buffer containing 137 mM NaCl, 2 mM EDTA, 10% glycerol, […] sodium ortho vanadate and complete protease inhibitor cocktail (Roche) in 20 mM Tris-HCl (pH8.0). The cell extracts were transferred into Rat anti-c-fms antibody coated 96 well plates and incubated for 12 hrs at 4° C. The extracts were removed by aspiration and the plate was incubated with biotinylated anti-phosphotyrosine antibody, PT66 (Sigma) and then with HRP (Horseradish Peroxidase)-labeled streptavidin (PIERCE). The optical density at 450 nm derived from HRP catalyzed TMB was measured with an ARVO multilabel counter. (Wallac Berthold Japan). The percent inhibition of activity was calculated relative to blank control wells. The concentration of test compound that inhibits 50% of activity (IC50) was interpolated using nonlinear regression (Levernberg-Marquardt) and the equation, y=Vmax (1−x/(K+x))+Y2, where “K” was equal to the IC50. The IC50 values were converted to pIC50 values, i.e., −log IC50 in Molar concentration.

SMILES strings stand for the structures. Counter-ions that a name gives are not always drawn.

T2 sequence (Q02763 762-1104): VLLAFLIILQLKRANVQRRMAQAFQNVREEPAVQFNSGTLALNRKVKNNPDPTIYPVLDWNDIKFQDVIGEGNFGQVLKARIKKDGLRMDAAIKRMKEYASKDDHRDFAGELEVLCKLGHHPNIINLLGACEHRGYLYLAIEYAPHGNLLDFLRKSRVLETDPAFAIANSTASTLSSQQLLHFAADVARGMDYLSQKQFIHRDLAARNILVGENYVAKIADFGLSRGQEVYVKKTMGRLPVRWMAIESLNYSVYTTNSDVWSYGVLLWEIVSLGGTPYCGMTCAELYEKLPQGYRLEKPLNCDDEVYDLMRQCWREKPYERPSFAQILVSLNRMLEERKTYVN
T3 sequence (Q02763 770-1124 limits assumed, change not shown): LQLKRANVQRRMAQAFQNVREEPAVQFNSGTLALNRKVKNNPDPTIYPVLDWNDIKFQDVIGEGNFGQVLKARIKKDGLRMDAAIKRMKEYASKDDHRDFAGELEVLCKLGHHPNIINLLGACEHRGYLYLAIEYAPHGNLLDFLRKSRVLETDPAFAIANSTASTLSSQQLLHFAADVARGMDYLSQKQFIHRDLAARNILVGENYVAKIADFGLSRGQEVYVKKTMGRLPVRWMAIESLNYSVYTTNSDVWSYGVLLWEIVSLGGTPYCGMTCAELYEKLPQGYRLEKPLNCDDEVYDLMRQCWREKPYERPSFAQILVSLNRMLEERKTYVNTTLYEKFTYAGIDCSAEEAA
T1 sequence (P35968 786-1356 limits assumed): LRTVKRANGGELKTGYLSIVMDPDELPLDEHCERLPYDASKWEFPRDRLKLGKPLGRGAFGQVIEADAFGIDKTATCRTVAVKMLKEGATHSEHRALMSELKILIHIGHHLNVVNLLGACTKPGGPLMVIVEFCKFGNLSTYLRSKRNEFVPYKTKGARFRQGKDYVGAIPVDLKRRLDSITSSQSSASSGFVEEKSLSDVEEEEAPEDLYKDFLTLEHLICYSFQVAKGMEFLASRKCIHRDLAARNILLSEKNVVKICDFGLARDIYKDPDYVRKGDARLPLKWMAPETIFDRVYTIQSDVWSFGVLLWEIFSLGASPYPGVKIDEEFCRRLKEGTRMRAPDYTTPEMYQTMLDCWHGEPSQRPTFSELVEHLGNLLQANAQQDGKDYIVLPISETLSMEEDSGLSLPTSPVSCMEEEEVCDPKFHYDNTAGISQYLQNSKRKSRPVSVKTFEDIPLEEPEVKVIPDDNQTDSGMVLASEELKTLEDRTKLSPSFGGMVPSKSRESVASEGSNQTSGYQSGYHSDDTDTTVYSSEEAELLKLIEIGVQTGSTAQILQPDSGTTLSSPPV

As to `COC(=O)Nc1nc2ccc(Oc3ccc(NC(=O)Nc4cc(C(F)(F)F)ccc4F)cc3)cc2[nH]1` [Example 10, Methyl N-(5-(4-((2-fluoro-5-(trifluoromethyl)phenyl)aminocarbonylamino)phenoxy)-1H-benzimidazol-2-yl)carbamate], the IC50 (in assay [1]; at GST-VEGFR2) was less than 100 nM throughout.
Turning to `COC(=O)Nc1nc2ccc(Sc3ccc(NC(=O)Nc4cc(C(F)(F)F)ccc4F)cc3)cc2[nH]1` [Example 9, Methyl N-(5-(4-((2-fluoro-5-(trifluoromethyl)phenyl)aminocarbonylamino)phenylthio)-1H-benzimidazol-2-yl)carbamate], the VEGF-C result in assay [1] was “−”.
Regarding `CC(=O)Nc1nc2cc(Oc3ccc(NC(=O)Nc4cc(C(F)(F)F)ccc4F)cc3)ccc2[nH]1` [Example 25, N-(5-(4-((2-Fluoro-5-(trifluoromethyl)phenyl)aminocarbonylamino)phenoxy)-1H-benzimidazol-2-yl)acetamide], in assay [1], the IC50 is less than 100 nM.
`COC(=O)Nc1nc2c(Br)cc(Oc3ccc(NC(=O)Nc4cc(C(F)(F)F)ccc4F)cc3)cc2s1.Cl` [Example 65, Methyl N-(4-bromo-6-(4-((6-fluoro-3-(trifluoromethylphenyl)aminocarbonylamino)phenoxy)benzthiazol-2-yl)carbamate hydrochloride]: the 50% inhibitory concentration (IC50) (on GST-VEGFR2; in assay [2]; in assay [3]) was less than 100 nM in each case.
With `O=C(Nc1ccc(Oc2ccc3nc(NC(=O)c4ccc(-n5cccc5)cc4)[nH]c3c2)cc1)Nc1cc(C(F)(F)F)ccc1F` [Example 90, N-(5-(4-((2-Fluoro-5-(trifluoromethyl)phenyl)aminocarbonylamino)phenoxy)-1H-benzimidazol-2-yl)-4-(pyrrol-1-yl)benzamide], the IC50 against GST-VEGFR2 is less than 100 nM; in assay [2] it was less than 100 nM; in assay [3] it was 1000 to 10000 nM.
As for `CN(C)CCNc1nc2cc(Oc3ccc(NC(=O)Nc4cc(C(F)(F)F)ccc4F)cc3)ccc2[nH]1` [Example 105, 2-(2-(Dimethylamino)ethylamino)-5-(4-((2-fluoro-5-(trifluoromethyl)phenyl)aminocarbonylamino)phenoxy)-1H-benzimidazole], the figures for the IC50 (against GST-VEGFR2; in assay [2]; in assay [3]) were less than 100 nM, 100 to 1000 nM and 1000 to 10000 nM, respectively.
`COC(=O)Nc1nc2c(Br)cc(Oc3ccc(NC(=O)Nc4cc(C(F)(F)F)ccc4F)cc3)cc2s1.Cl` [Example 65]: the VEGF-C entry in assay [1] is “−”.
In the case of `CN1CCN(CCCNc2nc3ccc(Oc4ccc(NC(=O)Nc5cc(C(F)(F)F)ccc5F)cc4)cc3[nH]2)CC1` [Example 106, 2-(3-(4-methyl-1-piperazino)propylamino)-5-(4-((2-fluoro-5-(trifluoromethyl)phenyl)aminocarbonylamino)phenoxy)-1H-benzimidazole], the IC50 at GST-VEGFR2 was less than 100 nM; in assay [2], 100 to 1000 nM; in assay [3], 100 to 1000 nM.
As for `O=C(Nc1ccc(Oc2ccc3[nH]c(NC(=O)c4ccco4)nc3c2)cc1)Nc1cc(C(F)(F)F)ccc1F` [Example 27, N-(5-(4-((2-Fluoro-5-(trifluoromethyl)phenyl)aminocarbonylamino)phenoxy)-1H-benzimidazol-2-yl)(2-fury)formamide], in assay [1], the IC50 lay in the range of 100 to 1000 nM.
For the compound `CC(=O)Nc1nc2ccc(Oc3ccc(NC(=O)Nc4cc(C(F)(F)F)ccc4F)nc3)cc2n1Cc1ccccc1` [Example 110], the IC50 against GST-VEGFR2 was 100 to 1000 nM; in assay [2], less than 100 nM; in assay [3], 100 to 1000 nM.
As for `COC(=O)Nc1nc2cc(Oc3ccc(NC(=O)Nc4cc(Cl)ccc4Cl)cn3)ccc2[nH]1` [Example 112, Methyl N-(5-(5-((2,5-dichlorophenyl)aminocarbonylamino)-2-pyridyloxy)-1H-benzimidazol-2-yl)carbamate dihydrochloride], the IC50 (against GST-VEGFR2; in assay [2]; in assay [3]) was 100 to 1000 nM in each case.
For `COC(=O)Nc1nc2ncc(Oc3ccc(NC(=O)Nc4cc(C(F)(F)F)ccc4Cl)cc3)cc2[nH]1` [Example 73, Methyl N-(6-(4-((2-chloro-5-(trifluoromethyl)phenyl)aminocarbonylamino)phenoxy)-3,4-diaza-1H-indole-2-yl)carbamate dihydrochloride], the IC50 at GST-VEGFR2 is less than 100 nM; in assay [2] it was 100 to 1000 nM; in assay [3], 100 to 1000 nM.
In the case of `CN1CCN(CCNc2nc3cc(Oc4ccc(NC(=O)Nc5cc(C(F)(F)F)ccc5F)cc4)ccc3[nH]2)CC1` [Example 104, 2-(2-(4-Methyl-1-piperazino)ethylamino)-5-(4-((2-fluoro-5-(trifluoromethyl)phenyl)aminocarbonylamino)phenoxy)-1H-benzimidazole], the IC50 against GST-VEGFR2 is less than 100 nM; in assay [2], 100 to 1000 nM; in assay [3], 100 to 1000 nM.
As to `CCc1cccc(NC(=O)Nc2cccc(Oc3ccc4[nH]c(NC(=O)OC)nc4c3)c2)c1` [Example 16, Methyl N-(5-(3-((3-ethylphenyl)aminocarbonylamino)phenoxy)-1H-benzimidazol-2-yl)carbamate], the IC50 (on GST-VEGFR2; in assay [2]; in assay [3]) was less than 100 nM each time.

Usually IC50 stands for the concentration needed to halve the response being measured.

The values above are taken from patent publication US7238813B2, “Chemical compounds” (Smithkline Beecham Corporation, priority 2000, dated 2007).
